Test results reported in patent publication US20250073234A1, “COMBINATION THERAPIES INCLUDING PARP1 INHIBITORS” (Cornell University, priority 2022, published 2025).
Where two headings read alike, the source gives them in different places.

Assays:
[1] = system: prostate cancer bone metastasis; assay: Paired biopsies of bone metastasis from a mCRPC patient, IHC for HA; format: in vivo, human
[2] = system: p62 in prostate, lung, breast and endometrial primary fibroblasts; assay: p62 immunoblot in primary fibroblasts of different tissue origins; format: cell-based; settings: Olaparib 20 μM, 4 days
Experimental: (§1) Cells for protein analysis were lysed in RIPA buffer (20 mM Tris-HCl, […], 2 mM EDTA, 1% Triton-X, 10% glycerol, 0.1% SDS, and 0.5% sodium deoxycholate) with phosphatase and protease inhibitors. For immunoprecipitations, cells were lysed in IP lysis buffer (100 mM NaCl, 25 mM Tris, 1% Triton-X, 10% glycerol, with phosphatase and protease inhibitors) and immunoprecipitated with 25 μl of 50% slurry of protein […] beads (Bioworld). Immunoprecipitates were washed three times with lysis buffer, once with high salt (500 mM NaCl), and once more with lysis buffer. Protein concentration in lysates was determined by using Protein Assay Kit (Bio-Rad). Cell extracts and immunoprecipitated proteins were denatured, subjected to SDS-PAGE, transferred to PVDF membranes (GE Healthcare). After blocking with 5% nonfat dry milk in Tris-buffered saline and 0.1% Tween (TBS-T), the membranes were incubated with the specific antibodies (as listed in Key Resources Table) overnight at 4° C. After 2 hours incubation with the appropriate horseradish peroxidase-conjugated antibodies, the immune complexes were detected by chemiluminescence (Thermo Scientific) or Near-infrared fluorescence (LI-COR).

[3] = system: tumor-invaded lymph nodes and bones; assay: Castrated TRAMP+/FVB mice, IHC of metastatic lymph nodes and bone; format: in vivo, mouse; settings: for αSMA expression and HA deposition in metastatic lymph nodes: 3 weeks
Experimental: (§2) Tissues from indicated mice were isolated, fixed in zinc buffered formalin overnight at 4° C., dehydrated, and embedded in paraffin. Sections (5 μm) were stained with hematoxylin and eosin (H&E). For immunohistochemistry, sections were deparaffinized, rehydrated, and then treated for antigen retrieval. After blocking in Protein Block Serum-Free solutions (DAKO), tissues were incubated with primary antibody overnight at 4° C. followed by incubation with biotinylated secondary antibody. Endogenous peroxidase was quenched in 3% H2O2 in water for 10 minutes at room temperature. Antibodies were visualized with avidin-biotin complex (Vectastain Elite; Vector Laboratories) using diaminobenzidine as the chromogen. Stained sections were analyzed with a Zeiss light microscope supplemented with Zen 3.3 Bule edition software.
For Olaparib treatment in mice, 13 weeks-old male TRAMP^+/FVB were surgical castrated, after 10 days n=16, were randomly distributed to receive vehicle, n=8, or Olaparib n=8 (5 mg/kg/, 5 days each, i.p.). Mice were euthanized 3 weeks after the initiation of the treatment. Prostate and other organs were collected and analyzed histologically.

[4] = system: TRAMP+ prostate tumors; assay: TRAMP+ prostate tumor model (IHC, scRNAseq); format: in vivo, mouse
Experimental: For mouse xenografts using PC3 PCa cells and sgC or sgAP-1 WPMY-1 stromal cells. 7 weeks old NSG mice were surgical castrated and let androgen levels drop for 10 days. Cells were trypsinized washed two times in PBS and resuspend in DMEN. 1×10^6 PC3 and 1×10^6 sgC or sgAP1-A WPMY-1 for each mouse were resuspended in 100 μl DMEM: Matrigel (1:1) and injected subcutaneously into both flanks of immunocompromised NSG mice (PC3+sgC WPMY-1 n=4; PC3+sgAP-1 WPMY-1 n=4). Tumors were allowed to grow for 1 month. Mice were euthanized and tumors were collected and analyzed histologically. For Olaparib treatment in mouse xenografts. PC3 PCa cells and WPMY-1 stromal cells were trypsinized washed two times in PBS and resuspend in DMEN. 1×10^6 PC3 and 1×10^6 WPMY-1 for each mouse were resuspended in 100 μl DMEM: Matrigel (1:1) and injected subcutaneously into both flanks of immunocompromised NSG mice. Tumors were allowed to grow for 14 days, and mouse were randomly divided to receive vehicle, n=10, Olaparib (40 mg/kg, 2 days each week, i.p.), n=10 or Olaparib (40 mg/kg, 2 days each week, i.p.)+_PEGPH20 (0.0375 mg/Kg, 2 days each week, retroorbital injection) n=10. Tumors were measured twice a week. Mice were euthanized 14 days after the initiation of the treatment and tumors were collected and analyzed histologically. For Olaparib treatment in mice, 13 weeks-old male TRAMP^+, n=18, were randomly distributed to receive vehicle, n=9, or Olaparib (40 mg/kg/, 5 days each week, i.p.), n=9. Mice were euthanized 1 month after the initiation of the treatment. Prostate and other organs were collected and analyzed histologically.
as §2
Prostate lobes dissected and washed with cold PBS. Prostate tissue was gently minced with scissors and digested in Advance DMEN/F12 media (Gibco, Thermo Fisher) with 5 mg/ml Collagenase type II (Sigma) supplemented with Y27632 (Tocris) for 1 hour at 37° C. Cells were passed through a 70 μm strainer and centrifuge 5 minutes, 1000 rpm at 4° C. After that, cells were incubated with TrypLE Express (Gibco, Thermo Fisher) supplemented with Y27632 for 20 minutes in agitation at 37° C. to achieve a single cell suspension. TrypLE Express was quenched and washed with Advance DMEN/F12 media and then cells were centrifuged for 5 minutes, 1000 rpm at 4° C. Dead cells were removed by Annexin V ([…] technologies). scRNA-seq libraries were generated using the Chromium Single Cell 30 Reagent Kit v2 (10× Genomics). Cells were loaded onto the 10×Chromium Single Cell Platform (10× Genomics) at a concentration of 2,000 cells per μl (Single Cell 3′ library and Gel Bead Kit v.2) as described in the manufacturer's protocol (10× User Guide, Revision B). On average, approximately 8,000 cells were loaded. Generation of gel beads in emulsion (GEMs), barcoding, GEM-RT clean-up, complementary DNA amplification and library construction were all performed as per the manufacturer's protocol. Individual sample quality was checked using a Bioanalyzer Tapestation (Agilent). Qubit was used for library quantification before pooling. The final library pool was sequenced on an Illumina NovaSeq6000 instrument using a S1 flow cell. […]

[5] = system: WPMY-1 fibroblasts; assay: GSEA of RNAseq data from WPMY-1 fibroblasts; format: cell-based, human; settings: for GSEA inflammatory signaling pathways (TNFα, IL-6, JAK-STAT): Olaparib 20 μM vs DMSO
Experimental: Total RNA was extracted using Quick-RNA MiniPrep kit (Zymo Research). Libraries were prepared from 200 ng of total RNA using the QuantSeq 3′ mRNA-Seq Library Prep Kit FWD for Illumina from Lexogen, and optional UMIs (Vienna, Austria). Barcoded libraries were pooled, and single end sequenced (1×75) on the Illumina NextSeq 500 using the High output V2.5 kit (Illumina Inc., San Diego CA).
Peaks were annotated with ChipSeeker R package. […].

[6] = system: PARP-1; assay: Poly(ADP-ribosyl)ation in WPMY-1 cells (immunoblot, immunoprecipitation); format: cell-based, human; settings: added to lactate-treated cells, 48 h
Experimental: as §1

Row | Structure (SMILES) | HA deposition in bone metastasis, pre- vs post-treatment [1] | HA deposition in bone metastasis, pre- vs post-treatment ([1]; listed as Ola) | p62 expression [2] | HA in bone marrow stromal cells and growth plate [3] | αSMA expression and HA deposition in metastatic lymph nodes [3] | αSMA expression and HA deposition in metastatic lymph nodes ([3]; listed as Ola) | HA in bone marrow stromal cells and growth plate ([3]; listed as Ola) | desmoplastic response in the prostate (IHC HA, aSMA) ([4]; Olaparib 40 mg/Kg, 5 days a week, 4 weeks) | AR, EMT and TGFβ signaling signatures in tumor epithelium ([4]; Olaparib 4 weeks) | Has1, Spink1 and Tgfb2 transcripts in fibroblast population (scRNAseq) ([4]; Olaparib 4 weeks) | neuroendocrine cluster 2 (NE1) of tumor epithelium (scRNAseq) ([4]; Olaparib 4 weeks) | pSMAD2 staining in prostates (IHC) ([4]; Olaparib 4 weeks) | stromal and immune cell populations (scRNAseq) ([4]; Olaparib 4 weeks) | SPINK1 levels in tumor stroma (IHC) ([4]; in vivo) | GSEA inflammatory signaling pathways (TNFα, IL-6, JAK-STAT) [5] | GSEA inflammatory signaling pathways (TNFα, IL-6, JAK-STAT) ([5]; listed as Ola) | GSEA signatures of extracellular matrix remodeling / CAF activation ([5]; basal or ADT conditions) | poly(ADP-ribosyl)ation of c-JUN and c-FOS in lactate-treated cells [6]
1 | O=C(c1cc(Cc2n[nH]c(=O)c3ccccc23)ccc1F)N1CCN(C(=O)C2CC2)CC1 [Olaparib] | increased HA deposition | robust increase in HA deposition | downregulated p62 expression | increased HA deposition in the growth plate and stromal areas | increased stromal content upon Olaparib treatment | increased «SMA expression and higher hyaluronan (HA) deposition | higher levels of HA | induced a strong desmoplastic response in the prostate | increased AR, EMT and TGFβ signaling | among the most upregulated transcripts | completely abolished the neuroendocrine cluster 2 | increased pSMAD2 staining | expansion of the stromal and immune populations | highly upregulated | increased inflammatory related signatures | significant enrichment was found in inflammatory signaling pathways | enrichment of signatures corresponding to extracellular matrix remodeling | 
2 | NC(=O)c1ccc[n+]([C@@H]2O[C@H](COP(=O)([O-])OP(=O)(O)OC[C@H]3O[C@@H](n4cnc5c(N)ncnc54)[C@H](O)[C@@H]3O)[C@@H](O)[C@H]2O)c1 [NAD^+] |  |  |  |  |  |  |  |  |  |  |  |  |  |  |  |  |  | rescued the poly(ADP-ribosyl) ation of both transcription factors
